Legend:
WNK1 = test: KINOMEscan; settings: 50000 nM
Description: KINOMEscan™ selectivity screen
(§1) The assay was perfor med at DiscoveRx Corporation according the methods published previously5. Briefly, Kinase-tagged T7 phage strains were grown in parallel in an E. coli host derived from the BL21 strain. E. coli were grown to log-phase and infected with T7 phage from a frozen stock and incubated with shaking at 32°C until lysis (90-150 minutes). The kinases were produced in HEK-293 cells and subsequently tagged with DNA for qPCR detection. Streptavidin-coated magnetic beads were treated with biotinylated small molecule ligands to generate affinity resins for kinase
(§2) inhibitor or DMSO control was performed in polypropylene 384-well plates for 1 hr at room temperature. After wash with PBS buffer containing 0.05% Tween 20, the beads were incubated in elution buffer (PBS containing 0.05 % Tween 20 and 0.5 μM non-biotinylated affinity ligand) for 30 minutes at room temperature. The kinase concentration in the eluates was measured by qPCR.

MAST1 = test: KINOMEscan; settings: 50000 nM
Description: KINOMEscan™ selectivity screen
as §1, §2

[1] = tested on: ABL1(F317L)-phosphorylated; test: KINOMEscan; settings: 50000 nM
Description: KINOMEscan™ selectivity screen
as §1, §2

cleaved caspase 3 = test: Western blot of cleaved caspase 3; assay type: cell-based, Mouse; settings: Neuro 2A cells
Description: Neuro 2A cells were seeded in 12-well plates in DMEM containing 5% FBS for 24 hr.
After overnight serum starvation (in 0% FBS DMEM), cells were incubated for 30 min at 37 °C with G7 or LY294002 or Torin 1 (Sigma Aldrich) at various concentrations, or DMSO control. IGF-1 was added to each well at a final concentration of 100 ng/mL. After 30-min incubation cells were washed with cold PBS and lysed with 50 µL lysis buffer containing 1% Triton X-100 and protease/phosphatase inhibitors (Cell Signaling Technology) or RIPA buffer (Santa Cruz Biotech). Samples were electrophoresed in 4–12% Bis-Tris gels (Life Technologies) at 150 V using MOPS SDS running buffer. Proteins were transferred electrophoretically to a PVDF or nitrocellulose membrane. For detection of cleaved […]
caspase 3 a Trans-Blot Turbo Transfer System (Bio-Rad, 25 V for 25 min) with PVDF membrane were used. […]
anti- GAPDH (14C10) antibody (#2118) (all antibodies were from Cell Signaling Technology unless indicated, 1:1000 dilution was used) at 4°C overnight, washed three times with TBS-T, then incubated with peroxidase-conjugated secondary antibody (Sigma-Aldrich) for 1 hr at room temperature. […] Band intensity was quantitated using Kodak 1D imaging analysis software. […]

SGK3 = test: KINOMEscan; settings: 50000 nM
Description: KINOMEscan™ selectivity screen
as §1, §2

ABL1-nonphosphorylated = test: KINOMEscan; settings: 50000 nM
Description: KINOMEscan™ selectivity screen
as §1, §2

ERN1 = test: KINOMEscan; settings: 50000 nM
Description: KINOMEscan™ selectivity screen
(§3) Briefly, Kinase-tagged T7 phage strains were grown in parallel in an E. coli host derived from the BL21 strain. E. coli were grown to log-phase and infected with T7 phage from a frozen stock and incubated with shaking at 32°C until lysis (90-150 minutes). The kinases were produced in HEK-293 cells and subsequently tagged with DNA for qPCR detection. Streptavidin-coated magnetic beads were treated with biotinylated small molecule ligands to generate affinity resins for kinase
as §2

FLT4 = test: KINOMEscan; settings: 50000 nM
Description: KINOMEscan™ selectivity screen
as §1, §2

TRKA = test: KINOMEscan; settings: 50000 nM
Description: KINOMEscan™ selectivity screen
as §1, §2

FRK = test: KINOMEscan; settings: 50000 nM
Description: KINOMEscan™ selectivity screen
as §1, §2

DAPK2 = test: KINOMEscan; settings: 50000 nM
Description: KINOMEscan™ selectivity screen
as §1, §2

NDR1 = test: KINOMEscan; settings: 50000 nM
Description: KINOMEscan™ selectivity screen
as §3, §2

PLK2 = test: KINOMEscan; settings: 50000 nM
Description: KINOMEscan™ selectivity screen
as §3, §2

MST2 = test: KINOMEscan; settings: 50000 nM
Description: KINOMEscan™ selectivity screen
The assay was perfor med at DiscoveRx Corporation according the methods published previously5. […] The kinases were produced in HEK-293 cells and subsequently tagged with DNA for qPCR detection. Streptavidin-coated magnetic beads were treated with biotinylated small molecule ligands to generate affinity resins for kinase
as §2

PAK3 = test: KINOMEscan; settings: 50000 nM
Description: KINOMEscan™ selectivity screen
as §1, §2

PIK3CA(E545K) = test: KINOMEscan; settings: 50000 nM
Description: KINOMEscan™ selectivity screen
as §1, §2

PRKG1 = test: KINOMEscan; settings: 50000 nM
Description: KINOMEscan™ selectivity screen
as §1, §2

WNK4 = test: KINOMEscan; settings: 50000 nM
Description: as §3, §2

VRK2 = test: KINOMEscan; settings: 50000 nM
Description: KINOMEscan™ selectivity screen
as §1, §2

HUNK = test: KINOMEscan; settings: 50000 nM
Description: KINOMEscan™ selectivity screen
as §3, §2

RIPK4 = test: KINOMEscan; settings: 50000 nM
Description: KINOMEscan™ selectivity screen
as §1, §2

TAOK2 = test: KINOMEscan; settings: 50000 nM
Description: KINOMEscan™ selectivity screen
Briefly, Kinase-tagged T7 phage strains were grown in parallel in an E. coli host derived from the BL21 strain. E. coli were grown to log-phase and infected with T7 phage from a frozen stock and incubated with shaking at 32°C until lysis (90-150 minutes). The kinases were produced in HEK-293 cells and subsequently tagged with DNA for qPCR detection.
After wash with PBS buffer containing 0.05% Tween 20, the beads were incubated in elution buffer (PBS containing 0.05 % Tween 20 and 0.5 μM non-biotinylated affinity ligand) for 30 minutes at room temperature. The kinase concentration in the eluates was measured by qPCR.

EGFR(L747-T751del,Sins) = test: KINOMEscan; settings: 50000 nM
Description: KINOMEscan™ selectivity screen
as §3, §2

AURKC = test: KINOMEscan; settings: 50000 nM
Description: KINOMEscan™ selectivity screen
as §1, §2

CAMK4 = test: KINOMEscan; settings: 50000 nM
Description: KINOMEscan™ selectivity screen
as §1, §2

PDGFRB = test: KINOMEscan; settings: 50000 nM
Description: KINOMEscan™ selectivity screen
as §3, §2

NIM1 = test: KINOMEscan; settings: 50000 nM
Description: KINOMEscan™ selectivity screen
as §3, §2

NDR2 = test: KINOMEscan; settings: 50000 nM
Description: as §3, §2

KIT(V559D,T670I) = test: KINOMEscan; settings: 50000 nM
Description: KINOMEscan™ selectivity screen
as §1, §2

EPHA3 = test: KINOMEscan; settings: 50000 nM
Description: KINOMEscan™ selectivity screen
as §1, §2

over 380 human kinases = test: KINOMEscan selectivity screen (whole panel); settings: 50000 nM; 403 non-mutant kinases
Description: KINOMEscan™ selectivity screen
as §1, §2

[2] = tested on: ABL1(Q252H)-phosphorylated; test: KINOMEscan; settings: 50000 nM
Description: KINOMEscan™ selectivity screen
as §1, §2

FGR = test: KINOMEscan; settings: 50000 nM
Description: KINOMEscan™ selectivity screen
as §1, §2

RIOK3 = test: KINOMEscan; settings: 50000 nM
Description: KINOMEscan™ selectivity screen
as §1, §2

ROS1 = test: KINOMEscan; settings: 50000 nM
Description: KINOMEscan™ selectivity screen
as §1, §2

CSNK1E = test: KINOMEscan; settings: 50000 nM
Description: KINOMEscan™ selectivity screen
as §1, §2

EGFR(G719S) = test: KINOMEscan; settings: 50000 nM
Description: KINOMEscan™ selectivity screen
as §1, §2

Oc1cc(-c2ccccc2)c2ccccc2n1 [G7, 4-phenylquinolin-2(1H)-one]
Percent Control (WNK1): 97% | Percent Control (MAST1): 100% | Percent Control [1]: 64% | levels of the cleaved caspase 3 (cleaved caspase 3): elevated levels | Percent Control (SGK3): 83% | Percent Control (ABL1-nonphosphorylated): 81% | Percent Control (ERN1): 69% | Percent Control (FLT4): 72% | Percent Control (TRKA): 65% | Percent Control (FRK): 89% | Percent Control (DAPK2): 83% | Percent Control (NDR1): 83% | Percent Control (PLK2): 78% | Percent Control (MST2): 76% | Percent Control (PAK3): 81% | Percent Control (PIK3CA(E545K)): 98% | Percent Control (PRKG1): 70% | Percent Control (WNK4): 88% | Percent Control (VRK2): 82% | Percent Control (HUNK): 70% | Percent Control (RIPK4): 80% | Percent Control (TAOK2): 93% | Percent Control (EGFR(L747-T751del,Sins)): 77% | Percent Control (AURKC): 66% | Percent Control (CAMK4): 100% | Percent Control (PDGFRB): 23% | Percent Control (NIM1): 90% | Percent Control (NDR2): 88% | Percent Control (KIT(V559D,T670I)): 44% | Percent Control (EPHA3): 66% | Number of Hits S(1) (over 380 human kinases): 0 | Number of Hits S(10) (over 380 human kinases): 2 | Number of Hits S(35) (over 380 human kinases): 14 | Selectivity Score S(10) (over 380 human kinases): 0.005 | Selectivity Score S(35) (over 380 human kinases): 0.035 | Percent Control [2]: 33% | Percent Control (FGR): 88% | Percent Control (RIOK3): 58% | Percent Control (ROS1): 98% | Percent Control (CSNK1E): 15% | Percent Control (EGFR(G719S)): 100%

— article PMC5601486, “Identification of 4-phenylquinolin-2(1H)-one as a specific allosteric inhibitor of Akt” (Scientific Reports, 2017)
